In ChEMBL document CHEMBL2346513, “Synthesis and evaluation of methylsulfonylnitrobenzamides (MSNBAs) as inhibitors of the thyroid hormone receptor-coactivator interaction” (Bioorg Med Chem Lett, 2013):

Key:
Vitamin D3 receptor = biological target: T1, Vitamin D3 receptor (Homo sapiens, UniProt P11473); assay: Inhibition of VDR (unknown origin) interaction to SRC2-3 peptide by fluorescence polarization assay
T1 sequence (P11473 whole entry): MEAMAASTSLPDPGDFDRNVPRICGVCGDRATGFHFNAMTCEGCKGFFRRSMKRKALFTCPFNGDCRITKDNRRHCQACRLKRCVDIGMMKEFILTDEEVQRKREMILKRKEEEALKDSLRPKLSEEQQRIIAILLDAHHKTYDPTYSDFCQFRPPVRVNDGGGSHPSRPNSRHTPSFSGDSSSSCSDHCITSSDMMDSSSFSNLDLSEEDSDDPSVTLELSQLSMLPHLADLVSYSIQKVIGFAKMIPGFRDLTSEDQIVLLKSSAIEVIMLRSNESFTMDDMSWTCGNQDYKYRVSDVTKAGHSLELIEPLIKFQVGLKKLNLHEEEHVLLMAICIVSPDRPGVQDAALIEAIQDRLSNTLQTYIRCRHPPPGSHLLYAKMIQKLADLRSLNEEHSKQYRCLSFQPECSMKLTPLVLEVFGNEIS

[1] = biological target: T2, Thyroid hormone receptor alpha (Homo sapiens, UniProt P10827); assay: Inhibition of TRalpha-LBD (unknown origin) interaction to texas red-labeled SRC2-2 peptide by fluorescence polarization assay
T2 sequence (P10827 whole entry): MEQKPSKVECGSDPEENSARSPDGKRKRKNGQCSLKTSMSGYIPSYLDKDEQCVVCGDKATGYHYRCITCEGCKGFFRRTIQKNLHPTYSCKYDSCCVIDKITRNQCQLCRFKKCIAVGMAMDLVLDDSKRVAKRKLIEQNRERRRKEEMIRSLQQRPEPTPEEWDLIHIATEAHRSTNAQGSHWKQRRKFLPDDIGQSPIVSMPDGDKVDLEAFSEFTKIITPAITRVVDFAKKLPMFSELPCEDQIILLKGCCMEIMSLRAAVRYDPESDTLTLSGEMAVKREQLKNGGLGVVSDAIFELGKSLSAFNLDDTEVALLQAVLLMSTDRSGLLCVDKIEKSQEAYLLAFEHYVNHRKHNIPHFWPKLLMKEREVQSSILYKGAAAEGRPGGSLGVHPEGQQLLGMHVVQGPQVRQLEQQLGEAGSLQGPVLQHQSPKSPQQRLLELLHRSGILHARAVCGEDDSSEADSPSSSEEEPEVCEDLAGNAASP

HepG2 = assay: Cytotoxicity against human HepG2 cells assessed as ATP level after 72 hrs by CellTiter-Glo assay; assay type: cell-based; settings: HepG2, 72 h
[2] = biological target: T3, Thyroid hormone receptor beta (Homo sapiens, UniProt P10828); assay: Inhibition of TRbeta-LBD (unknown origin) interaction to texas red-labeled SRC2-2 peptide by fluorescence polarization assay
T3 sequence (P10828 whole entry): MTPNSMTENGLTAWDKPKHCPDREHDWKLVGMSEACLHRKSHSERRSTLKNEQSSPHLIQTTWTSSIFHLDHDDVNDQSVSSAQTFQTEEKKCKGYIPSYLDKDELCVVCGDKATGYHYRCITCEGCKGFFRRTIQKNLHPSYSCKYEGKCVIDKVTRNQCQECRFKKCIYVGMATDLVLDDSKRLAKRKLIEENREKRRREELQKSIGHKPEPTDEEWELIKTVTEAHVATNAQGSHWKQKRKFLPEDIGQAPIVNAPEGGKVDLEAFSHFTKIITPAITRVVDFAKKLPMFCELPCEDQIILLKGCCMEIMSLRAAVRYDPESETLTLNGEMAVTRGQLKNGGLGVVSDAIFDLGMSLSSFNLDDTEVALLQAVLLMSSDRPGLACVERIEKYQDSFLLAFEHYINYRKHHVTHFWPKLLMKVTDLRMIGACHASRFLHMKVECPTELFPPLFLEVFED

Row | SMILES | IC50 (Vitamin D3 receptor) | IC50 [1] | IC50 [2] | EC50 (HepG2)
1 | CC1CCN(C(=O)C2CCN(C(=O)c3ccc(S(C)(=O)=O)c([N+](=O)[O-])c3)CC2)CC1 | > 60 µM | > 60 µM | > 60 µM | > 27 µM
2 | CC1Cc2ccccc2N1C(=O)CCNC(=O)c1ccc(S(C)(=O)=O)c([N+](=O)[O-])c1 (stereo not drawn) | 55 µM | > 60 µM | > 60 µM | > 27 µM
3 | CN(CC(=O)N1CCN(c2ccccc2)CC1)C(=O)c1ccc(S(C)(=O)=O)c([N+](=O)[O-])c1 | > 60 µM | > 60 µM | > 60 µM | > 27 µM
4 | CN(CC(=O)N(Cc1ccccc1)Cc1ccccc1)C(=O)c1ccc(S(C)(=O)=O)c([N+](=O)[O-])c1 | > 60 µM | > 60 µM | > 60 µM | > 27 µM
5 | CS(=O)(=O)c1ccc(C(=O)NCCC(=O)N(Cc2ccccc2)Cc2ccccc2)cc1[N+](=O)[O-] | 38 µM | 33 µM | > 60 µM | > 27 µM
6 | CS(=O)(=O)c1ccc(C(=O)NCCCC(=O)NC23CC4CC(CC(C4)C2)C3)cc1[N+](=O)[O-] | > 60 µM | > 60 µM | 10.6 µM | > 27 µM
7 | CS(=O)(=O)c1ccc(C(=O)NCC(=O)N2CCN(c3ccccc3)CC2)cc1[N+](=O)[O-] | > 60 µM | > 60 µM | > 60 µM | > 27 µM
8 | CN(Cc1cccc(F)c1)C(=O)C1CCN(C(=O)c2ccc(S(C)(=O)=O)c([N+](=O)[O-])c2)CC1 | > 60 µM | > 60 µM | > 60 µM | > 27 µM
9 | CS(=O)(=O)c1ccc(C(=O)N2CCC(C(=O)NC34CC5CC(CC(C5)C3)C4)CC2)cc1[N+](=O)[O-] | > 60 µM | > 60 µM | > 60 µM | > 27 µM
10 | CS(=O)(=O)c1ccc(C(=O)NCCCC(=O)N2CCN(c3ccccc3)CC2)cc1[N+](=O)[O-] | > 60 µM | > 60 µM | > 60 µM | > 27 µM
11 | CCCN(C(=O)CCCNC(=O)c1ccc(S(C)(=O)=O)c([N+](=O)[O-])c1)c1ccccc1 | > 60 µM | > 60 µM | > 60 µM | > 27 µM
12 | CC1CCN(C(=O)CCNC(=O)c2ccc(S(C)(=O)=O)c([N+](=O)[O-])c2)CC1 | > 60 µM | > 60 µM | > 60 µM | > 27 µM
13 | Cc1ccc(N2CCN(C(=O)CCCNC(=O)c3ccc(S(C)(=O)=O)c([N+](=O)[O-])c3)CC2)cc1 | > 60 µM | > 60 µM | > 60 µM | > 27 µM
14 | CS(=O)(=O)c1ccc(C(=O)NCC(=O)N2CCC(c3ccccc3)CC2)cc1[N+](=O)[O-] | 37 µM | 44 µM | > 60 µM | > 27 µM
15 | CS(=O)(=O)c1ccc(C(=O)NCCC(=O)N2CCCc3ccccc32)cc1[N+](=O)[O-] | > 60 µM | > 60 µM | > 60 µM | 10.5 µM
16 | CC1CCN(C(=O)CN(C)C(=O)c2ccc(S(C)(=O)=O)c([N+](=O)[O-])c2)CC1 | > 60 µM | > 60 µM | > 60 µM | > 27 µM
17 | CC1Cc2ccccc2N1C(=O)CCCNC(=O)c1ccc(S(C)(=O)=O)c([N+](=O)[O-])c1 (stereo not drawn) | > 60 µM | > 60 µM | > 60 µM | > 27 µM
18 | CCCN(C(=O)CCNC(=O)c1ccc(S(C)(=O)=O)c([N+](=O)[O-])c1)c1ccccc1 | 40 µM | 32 µM | 50 µM | > 27 µM
19 | CN(CC(=O)N1CCCCC1)C(=O)c1ccc(S(C)(=O)=O)c([N+](=O)[O-])c1 | > 60 µM | > 60 µM | > 60 µM | 11.3 µM
20 | CS(=O)(=O)c1ccc(C(=O)N2CCC(C(=O)N3CCN(c4ccccc4F)CC3)CC2)cc1[N+](=O)[O-] | > 60 µM | > 60 µM | > 60 µM | > 27 µM
21 | CN(CC(=O)N1CCN(c2ccc(F)cc2)CC1)C(=O)c1ccc(S(C)(=O)=O)c([N+](=O)[O-])c1 | > 60 µM | > 60 µM | > 60 µM | 17.2 µM
22 | CN(Cc1ccccc1)C(=O)CCCNC(=O)c1ccc(S(C)(=O)=O)c([N+](=O)[O-])c1 | > 60 µM | > 60 µM | > 60 µM | > 27 µM
23 | CC(C)N(C(=O)C1CCN(C(=O)c2ccc(S(C)(=O)=O)c([N+](=O)[O-])c2)CC1)C(C)C | > 60 µM | > 60 µM | > 60 µM | > 27 µM
24 | CN(C(=O)CCCNC(=O)c1ccc(S(C)(=O)=O)c([N+](=O)[O-])c1)c1ccccc1 | > 60 µM | > 60 µM | > 60 µM | > 27 µM

Continued, in another order:

Row | IC50 (Vitamin D3 receptor) | IC50 [1] | IC50 [2] | SMILES | EC50 (HepG2)
25 | > 60 µM | > 60 µM | > 60 µM | CS(=O)(=O)c1ccc(C(=O)N2CCC(C(=O)N3CCc4ccccc43)CC2)cc1[N+](=O)[O-] | > 27 µM
26 | > 60 µM | > 60 µM | > 60 µM | CS(=O)(=O)c1ccc(C(=O)N2CCC(C(=O)N3CCc4ccccc4C3)CC2)cc1[N+](=O)[O-] | > 27 µM
27 | > 60 µM | > 60 µM | > 60 µM | CN(CC(=O)N1CCC(c2ccccc2)CC1)C(=O)c1ccc(S(C)(=O)=O)c([N+](=O)[O-])c1 | > 27 µM
28 | > 60 µM | > 60 µM | > 60 µM | CS(=O)(=O)c1ccc(C(=O)N2CCC(C(=O)N3CCN(c4ccc(F)cc4)CC3)CC2)cc1[N+](=O)[O-] | > 27 µM
29 | > 60 µM | > 60 µM | > 60 µM | CS(=O)(=O)c1ccc(C(=O)NCCC(=O)N2CCN(c3ccccc3)CC2)cc1[N+](=O)[O-] | > 27 µM
30 | > 60 µM | > 60 µM | > 60 µM | CN(CC(=O)N1CCN(c2ccccc2F)CC1)C(=O)c1ccc(S(C)(=O)=O)c([N+](=O)[O-])c1 | 10.3 µM
31 | > 60 µM | > 60 µM | > 60 µM | CS(=O)(=O)c1ccc(C(=O)N2CCC(C(=O)N3Cc4ccccc4C3)CC2)cc1[N+](=O)[O-] | > 27 µM
32 | > 60 µM | > 60 µM | > 60 µM | CN(Cc1cccc(F)c1)C(=O)CNC(=O)c1ccc(S(C)(=O)=O)c([N+](=O)[O-])c1 | > 27 µM
33 | > 60 µM | > 60 µM | > 60 µM | CC1Cc2ccccc2N1C(=O)C1CCN(C(=O)c2ccc(S(C)(=O)=O)c([N+](=O)[O-])c2)CC1 (stereo not drawn) | > 27 µM
34 | > 60 µM | > 60 µM | > 60 µM | CN(Cc1ccccc1F)C(=O)CCCNC(=O)c1ccc(S(C)(=O)=O)c([N+](=O)[O-])c1 | > 27 µM
35 | > 60 µM | > 60 µM | > 60 µM | CC(C)N(C(=O)CCNC(=O)c1ccc(S(C)(=O)=O)c([N+](=O)[O-])c1)C(C)C | > 27 µM
36 | > 60 µM | > 60 µM | > 60 µM | CN(Cc1ccccc1F)C(=O)CN(C)C(=O)c1ccc(S(C)(=O)=O)c([N+](=O)[O-])c1 | > 27 µM
37 | > 60 µM | 1.9 µM | 6.6 µM | CCCN(C(=O)CNC(=O)c1ccc(S(C)(=O)=O)c([N+](=O)[O-])c1)c1ccccc1 | > 27 µM
